System: b.End3 cells
Test: Peptide-mediated protein (avidin-FITC/albumin-FITC) delivery to b.End3 cells
Type: cell-based, mouse
Settings: N-terminal biotin peptide, increasing concentrations, 1 h, 4 °C, avidin-FITC 50 µg/mL, 30 min, fluorescence, 3 independent experiments, triplicate
Description: Confluent endothelial monolayers were treated with increasing peptide concentrations in HBSS (1 h at 4 °C, unless otherwise stated). After removing unbound peptide, cells were either incubated in appropriate cell culture medium (37 °C) for varying time-points, or directly treated with neutravidin-FITC or albumin-FITC (0.83 mM, in HBSS, 30 min at 4 °C). After removing unbound protein with thorough HBSS washes, fluorescence (490/525 em/ex) was quantified with a Spark multimode microplate reader (Tecan) or imaged through confocal microscopy (Additional file 1: Diagram S1a–c).

HAIYPRH [Tf peptide]
Avidin delivery to b.End3 cells: lower avidin delivery than CFAG

Reference: paper PMC10699038, “Identifying molecular tags selectively retained on the surface of brain endothelial cells to generate artificial targets for therapy delivery” (Fluids and Barriers of the CNS, 2023)
